pKd: −log10 of the molar value. “And” between values parts separate entries of the source, which are not always exact repeats. Equal values may be shown once.
Columns and labels:
BC2L-C-ct [1] = biological target: T1, BC2L-C-ct (Burkholderia cenocepacia, UniProt B4EH86); assay: Isothermal titration microcalorimetry, binding of saccharides to BC2L-C-ct; details: ITC, 25°C; for pKd / n (stoichiometry): 20 mM Tris pH 7.5
T1 sequence (B4EH86 158-272): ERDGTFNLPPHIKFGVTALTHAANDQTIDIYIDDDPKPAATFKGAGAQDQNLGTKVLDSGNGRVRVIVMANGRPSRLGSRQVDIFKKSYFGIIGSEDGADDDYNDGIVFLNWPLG

BC2L-C [2] = biological target: T2, BC2L-C (Burkholderia cenocepacia, UniProt B4EH86); assay: Isothermal titration microcalorimetry, binding of saccharides to whole BC2L-C; details: ITC, 25°C; for pKd / n (stoichiometry): 20 mM Tris pH 7.5
T2 sequence (B4EH86 1-272): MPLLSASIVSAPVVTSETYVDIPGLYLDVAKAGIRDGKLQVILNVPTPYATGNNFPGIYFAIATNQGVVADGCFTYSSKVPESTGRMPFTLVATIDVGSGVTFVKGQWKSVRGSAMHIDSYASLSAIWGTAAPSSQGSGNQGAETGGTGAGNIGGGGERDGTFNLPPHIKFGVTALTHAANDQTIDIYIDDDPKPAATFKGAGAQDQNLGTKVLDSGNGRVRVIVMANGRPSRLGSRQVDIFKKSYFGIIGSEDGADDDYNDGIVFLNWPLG

BC2L-C [3] = biological target: T2, BC2L-C; assay: SPR on monosaccharide-activated surfaces, whole lectin; assay type: binding; details: CM5 chip, Biot-PAA-monosaccharide, 25°C
BC2L-C-ct [4] = biological target: T1, BC2L-C-ct; assay: SPR on monosaccharide-activated surfaces, C-terminal domain; assay type: binding; details: CM5 chip, Biot-PAA-monosaccharide, 25°C
BC2L-C-ct [5] = biological target: T1, BC2L-C-ct; assay: Glycan array (Consortium for Functional Glycomics), C-terminal domain; assay type: binding; details: Alexa-labelled lectin 200 µg/mL, array version 3.2
Description: Purified BC2L-C lectin samples were labeled with Alexa Fluor 488-TFP (Invitrogen, CA) according to manufacturer's instructions and re-purified on a D-Salt polyacrylamide desalting column (Pierce, Rockford IL). Alexa-labeled proteins were used for glycan-array screening with standard procedure of the Core H of the Consortium for Functional Glycomics (Emory University, Atlanta, GA, http://www.functionalglycomics.org). The screening of the printed glycan microarray chip (version 3.2, with 377 glycans from a library of natural and synthetic glycans) was performed with a concentration of BC2L-C of 200 µg/mL dissolved in 20 mM HEPES, 140 mM NaCl, 5 mM CaCl2, pH 7.5 for all samples.

Compound: OC[C@H]1OC(O)[C@@H](O)[C@@H](O)[C@@H]1O (stereo partly drawn) [D-Man, D-mannose]
- -TΔS (BC2L-C-ct [1]): 7.6 kcal/mol
- -ΔH (BC2L-C-ct [1]): 13.6 kcal/mol
- pKd (BC2L-C-ct [1]): 4.43
- n (stoichiometry) (BC2L-C-ct [1]): 0.50
- n (stoichiometry) (BC2L-C-ct [1]; listed as Man): ~0.5
- -TΔS (BC2L-C [2]): 8.25 kcal/mol
- pKd (BC2L-C [2]): 4.66
- n (stoichiometry) (BC2L-C [2]): 0.57
- binding of the lectin to sugar-modified surface (SPR) (BC2L-C [3]): interacts strongly
- binding of the C-terminal domain to sugar-modified surface (SPR) (BC2L-C-ct [4]): binds only to mannose-coated chips
- recognition on glycan array (BC2L-C-ct [5]): shortest fragment recognized, albeit not efficiently

Compound: C=CCO[C@H]1O[C@H]([C@@H](O)CO)[C@@H](O)[C@H](O[C@H]2O[C@H]([C@@H](O)CO)[C@@H](O)[C@H](O)[C@@H]2O)[C@@H]1O [Diheptose, allyl L-glycero-α-D-manno-heptopyranosyl-(1→3)-L-glycero-α-D-manno-heptopyranoside]
- -TΔS (BC2L-C-ct [1]): 3.82 kcal/mol
- pKd (BC2L-C-ct [1]): 4.06
- n (stoichiometry) (BC2L-C-ct [1]): 0.48

Compound: CC(=O)N[C@H]1C(O)O[C@H](CO)[C@@H](O[C@@H]2O[C@H](CO)[C@H](O)[C@H](O)[C@H]2O[C@@H]2O[C@@H](C)[C@@H](O)[C@@H](O)[C@@H]2O)[C@@H]1O[C@@H]1O[C@@H](C)[C@@H](O)[C@@H](O)[C@@H]1O (stereo partly drawn) [Lewis Y]
- -TΔS (BC2L-C [2]): 3.87 kcal/mol
- -ΔH (BC2L-C [2]): 9.78 kcal/mol
- pKd (BC2L-C [2]): 4.32
- n (stoichiometry) (BC2L-C [2]): 1 and 1.01

Compound: OC[C@H]1O[C@H](OC[C@H]2OC(O)[C@@H](O)[C@@H](O[C@H]3O[C@H](CO)[C@@H](O)[C@H](O)[C@@H]3O)[C@@H]2O)[C@@H](O)[C@@H](O)[C@@H]1O (stereo partly drawn) [Trimannose, Manα1-3(Manα1-6)Man]
- -TΔS (BC2L-C-ct [1]): 23.3 kcal/mol
- -ΔH (BC2L-C-ct [1]): 29.45 kcal/mol
- pKd (BC2L-C-ct [1]): 4.54
- n (stoichiometry) (BC2L-C-ct [1]): 0.22

Compound: C[C@H](O)[C@@H](O)[C@@H](O)[C@H](O)C=O [fucose]
- binding of the lectin to sugar-modified surface (SPR) (BC2L-C [3]): interacts strongly

Compound: O=C[C@H](O)[C@@H](O)[C@@H](O)[C@H](O)CO [galactose]
- binding of the lectin to sugar-modified surface (SPR) (BC2L-C [3]): not by galactose

Compound: CO[C@H]1O[C@H]([C@@H](O)CO)[C@@H](O)[C@H](O)[C@@H]1O [αMeHept, Methyl L-glycero-α-D-manno-heptopyranoside]
- -TΔS (BC2L-C-ct [1]): 4.9 kcal/mol
- -ΔH (BC2L-C-ct [1]): 10.1 kcal/mol
- pKd (BC2L-C-ct [1]): 3.82
- n (stoichiometry) (BC2L-C-ct [1]): 0.56

Compound: COC1O[C@H](CO)[C@@H](O)[C@H](O)[C@@H]1O (stereo partly drawn) [αMeMan, α-methyl-mannoside]
- -TΔS (BC2L-C-ct [1]): 6.93 kcal/mol
- -ΔH (BC2L-C-ct [1]): 13.1 kcal/mol
- pKd (BC2L-C-ct [1]): 4.56
- n (stoichiometry) (BC2L-C-ct [1]): 0.52
- -TΔS (BC2L-C [2]): 11.1 kcal/mol
- -ΔH (BC2L-C [2]): 17.6 kcal/mol
- pKd (BC2L-C [2]): 4.74
- n (stoichiometry) (BC2L-C [2]): 0.49

Compound: Manα1–2Man
- recognition on glycan array (BC2L-C-ct [5]): recognised

Compound: Manα1–3Man
- recognition on glycan array (BC2L-C-ct [5]): recognised

Compound: Manα1–6Man
- recognition on glycan array (BC2L-C-ct [5]): recognised
